Read-outs that look alike come from different tables or passages of the source.

The subject of this test is RPEMYC^H2B-GFP cells. Briefly: Phenotypic screening assay (mitotic arrest, polyploidy). The class given is cell-based. Conditions: 1 nM to 30 μM; for IC50: read-out: Proliferative arrest (>50%). As for the experimental part:
We have previously developed a mechanism-informed phenotypic screening assay to identify novel antimitotic agents. Equipped with a prior understanding of the versatile functions of the chromosomal passenger protein (CPP) complex in orchestrating karyokinesis and cytokinesis, the screening assay is to score for phenotypes typically seen when the CPP complex is disabled. Specifically, the parameters for a positive hit are a temporary elevation of mitotic index (MI) at 24 hours of drug treatment and an accumulation of polyploid cells at 48 hours of drug treatment, indicative of mitotic arrest and cytokinetic failure respectively. These parameters exclude compounds that elicit only a prolonged arrest of cells in mitosis, a phenotype typically provoked by spindle toxins. The screening procedure is briefly summarized here. RPEMYC^H2B-GFP cells engineered to express a Histone 2B-EGFP fusion protein were passaged as batches of 96-well plates, 18-24 hours before exposure to the chemical compounds of the present disclosure at concentrations from 1 nM to 30 μM. At 24, 48 or 72 hours after initiation of treatment, cells were analyzed for either an arrest in mitosis or a change in DNA content by GE IN-Cell Analyzer 2000. As set forth in Table 2 below, a value of greater than or equal to 1 nM and less than or equal to 1.0 μM is marked “A”; a value greater than 1.00 μM and less than or equal to 10.0 μM is marked “B”; a value greater than 10.0 μM and less than or equal to 30.0 μM is marked “C”; and a value greater than 30.0 μM is marked “D.”

Setting [1] is: read-out: Min. Effective conc. for Polyploidy (≥5%).

As to `CNC(=O)c1cc2c(Oc3cc(NC(C)=O)cc(OC)c3)ccnc2cc1OC` [Compound 45, 4-(3-Acetamido-5-methoxyphenoxy)-7-methoxy-N-methylquinoline-6-carboxamide], the IC50 lay within 1 to 10 µM. For the same molecule, the minimal effective concentration under setting [1] fell in the range of 1 to 10 µM. Also, where the note is “read-out: Mitotic Arrest (≥5%)”, the minimal effective concentration was in the range of 1 to 10 µM.
As for `COC(=O)c1ccc2nccc(Oc3cc(OC)cc(-n4cccn4)c3)c2c1` [Compound 46, Methyl 4-(3-methoxy-5-(1H-pyrazol-1-yl)phenoxy)quinoline-6-carboxylate], the IC50 was in the range of 0.001 to 1 µM. Moreover, the minimal effective concentration under setting [1] fell in the range of 0.001 to 1 µM. Also, under “read-out: Mitotic Arrest (≥5%)”, the minimal effective concentration lay in the range of 0.001 to 1 µM.
Take `COc1cc(OC)cc(Oc2ccnc3ccc(-c4ccco4)cc23)c1` [Compound 47, 4-(3,5-Dimethoxyphenoxy)-6-(furan-2-yl)quinoline]: the IC50 was in the range of 1 to 10 µM. Moreover, the minimal effective concentration under setting [1] lay within 1 to 10 µM. The minimal effective concentration (read-out: Mitotic Arrest (≥5%)) was 1 to 10 µM.
For `COc1cc(OC)cc(Oc2ccnc3ccc(Br)cc23)c1` [Compound 48, 6-Bromo-4-(3,5-dimethoxyphenoxy) quinoline], the IC50 was 0.001 to 1 µM. Also, the minimal effective concentration under setting [1] lay in the range of 0.001 to 1 µM. Moreover, the minimal effective concentration (read-out: Mitotic Arrest (≥5%)) fell in the range of 0.001 to 1 µM.
Regarding `COc1cc(Oc2ccnc3ccc(C(F)(F)F)cc23)cc(-n2cccn2)c1` [Compound 49, 4-(3-Methoxy-5-(1H-pyrazol-1-yl)phenoxy)-6-(trifluoromethyl) quinoline], the IC50 fell in the range of 0.001 to 1 µM. Under setting [1], the minimal effective concentration is 0.001 to 1 µM. The minimal effective concentration (read-out: Mitotic Arrest (≥5%)) was 0.001 to 1 µM.
On to `COc1cc(NC(C)=O)cc(Oc2ccnc3ccc(Cl)cc23)c1` [Compound 50, N-(3-((6-chloroquinolin-4-yl)oxy)-5-methoxyphenyl) acetamide], for which the IC50 was 0.001 to 1 µM. The minimal effective concentration under setting [1] fell in the range of 0.001 to 1 µM. Moreover, the minimal effective concentration (read-out: Mitotic Arrest (≥5%)) was 0.001 to 1 µM.
As to `COc1cc(Oc2ccnc3ccc(Cl)cc23)cc(-n2cccn2)c1` [Compound 51, 6-Chloro-4-(3-methoxy-5-(1H-pyrazol-1-yl)phenoxy) quinoline], the IC50 lay within 0.001 to 1 µM. For the same molecule, the minimal effective concentration under setting [1] fell in the range of 0.001 to 1 µM. The minimal effective concentration (read-out: Mitotic Arrest (≥5%)) fell in the range of 0.001 to 1 µM.
For the molecule `COc1cc(NC(C)=O)cc(Oc2ccnc3ccc(C(=O)O)cc23)c1` [Compound 52, 4-(3-Acetamido-5-methoxyphenoxy) quinoline-6-carboxylic acid], the IC50 was in the range of 10 to 30 µM. Besides, under setting [1], the minimal effective concentration is 10 to 30 µM. The minimal effective concentration (read-out: Mitotic Arrest (≥5%)) was in the range of 1 to 10 µM.
In the case of `CNC(=O)c1ccc2nccc(Oc3cc(NC(C)=O)cc(OC)c3)c2c1` [Compound 53, 4-(3-Acetamido-5-methoxyphenoxy)-N-methylquinoline-6-carboxamide], the IC50 lay in the range of 0.001 to 1 µM. Besides, under setting [1], the minimal effective concentration lay in the range of 0.001 to 1 µM. The minimal effective concentration (read-out: Mitotic Arrest (≥5%)) lay in the range of 0.001 to 1 µM.
As for `COc1cc(OC)cc(Oc2ncnc3ccn(C)c23)c1` [Compound 54, 4-(3,5-Dimethoxyphenoxy)-5-methyl-5H-pyrrolo[3,2-d] pyrimidine], the IC50 lay in the range of 10 to 30 µM. Moreover, the minimal effective concentration under setting [1] fell in the range of 10 to 30 µM. Besides, for the setting “read-out: Mitotic Arrest (≥5%)”, the minimal effective concentration lay within 1 to 10 µM.
Regarding `COc1cc(NC(C)=O)cc(Oc2ccnc3ccc(C(F)(F)F)cc23)c1` [Compound 55, N-(3-Methoxy-5-((6-(trifluoromethyl)quinolin-4-yl)oxy)phenyl)acetamide], the IC50 lay in the range of 0.001 to 1 µM. Moreover, the minimal effective concentration under setting [1] was in the range of 0.001 to 1 µM. For the same molecule, where the note is “read-out: Mitotic Arrest (≥5%)”, the minimal effective concentration was in the range of 0.001 to 1 µM.
On to `COc1cc(NC(C)=O)cc(Oc2ncnc3ccn(C)c23)c1` [Compound 56, N-(3-methoxy-5-((5-methyl-5H-pyrrolo[3,2-d]pyrimidin-4-yl)oxy)phenyl) acetamide], for which the IC50 fell in the range of 10 to 30 µM. Under setting [1], the minimal effective concentration lay in the range of 10 to 30 µM. Also, the minimal effective concentration (read-out: Mitotic Arrest (≥5%)) was in the range of 1 to 10 µM.
Regarding `CNC(=O)c1ccc2nccc(Oc3cc(OC)cc(-n4cccn4)c3)c2c1` [Compound 57, 4-(3-Methoxy-5-(1H-pyrazol-1-yl)phenoxy)-N-methylquinoline-6-carboxamide], the IC50 fell in the range of 0.001 to 1 µM. In addition, under setting [1], the minimal effective concentration lay in the range of 0.001 to 1 µM. Where the note is “read-out: Mitotic Arrest (≥5%)”, the minimal effective concentration fell in the range of 0.001 to 1 µM.
As to `COc1cc(NC(C)=O)cc(Oc2ccnc3ccc(C(=O)N(C)C)cc23)c1` [Compound 58, 4-(3-acetamido-5-methoxyphenoxy)-N, N-dimethylquinoline-6-carboxamide], the IC50 is 1 to 10 µM. Under setting [1], the minimal effective concentration lay in the range of 1 to 10 µM. Moreover, under “read-out: Mitotic Arrest (≥5%)”, the minimal effective concentration was 1 to 10 µM.
Regarding `CCOc1cc(Oc2ccnc3cc(OC)c(C(N)=O)cc23)cc(-n2cccn2)c1` [Compound 59, 4-(3-ethoxy-5-(1H-pyrazol-1-yl)phenoxy)-7-methoxyquinoline-6-carboxamide], the IC50 lay in the range of 0.001 to 1 µM. The minimal effective concentration under setting [1] lay within 0.001 to 1 µM. Moreover, the minimal effective concentration (read-out: Mitotic Arrest (≥5%)) was in the range of 0.001 to 1 µM.
On to `COc1cc(NC(C)=O)cc(Oc2ccnc3ccc(I)cc23)c1` [Compound 60, N-(3-((6-iodoquinolin-4-yl)oxy)-5-methoxyphenyl) acetamide], for which the IC50 was 0.001 to 1 µM. For the same molecule, under setting [1], the minimal effective concentration lay in the range of 0.001 to 1 µM. For the same molecule, where the note is “read-out: Mitotic Arrest (≥5%)”, the minimal effective concentration is 0.001 to 1 µM.
Take `COc1cc(Oc2ccnc3ccc(C(N)=O)cc23)cc(-n2cccn2)c1` [Compound 61, 4-(3-Methoxy-5-(1H-pyrazol-1-yl)phenoxy) quinolin-6-carbazamide]: the IC50 lay in the range of 0.001 to 1 µM. Also, under setting [1], the minimal effective concentration is 0.001 to 1 µM. For the same molecule, under “read-out: Mitotic Arrest (≥5%)”, the minimal effective concentration lay in the range of 0.001 to 1 µM.
For the molecule `COc1cc(Oc2ccnc3cc(OC)c(C(N)=O)cc23)cc(-c2ncccn2)c1` [Compound 62, 7-Methoxy-4-(3-methoxy-5-(pyridimin-2-yl)phenoxy) quinoline-6-carboxamide], the IC50 lay in the range of 0.001 to 1 µM. Besides, the minimal effective concentration under setting [1] fell in the range of 0.001 to 1 µM. Besides, for the setting “read-out: Mitotic Arrest (≥5%)”, the minimal effective concentration was 0.001 to 1 µM.
On to `COc1cc(Oc2ccnc3cc(OC)c(OC)cc23)cc(-c2ncccn2)c1` [Compound 63, 6,7-Dimethoxy-4-(3-methoxy-5-(pyrimidin-2-yl)phenoxy) quinoline], for which the IC50 is 0.001 to 1 µM. The minimal effective concentration under setting [1] lay in the range of 0.001 to 1 µM. Further, the minimal effective concentration (read-out: Mitotic Arrest (≥5%)) fell in the range of 0.001 to 1 µM.
For `COc1cc(Oc2ccnc3cc(OC)c(C(N)=O)cc23)cc(-c2nc(C)no2)c1` [Compound 64, 7-Methoxy-4-(3-methoxy-5-(3-methyl-1,2,4-oxadiazol-5-yl)phenoxy)quinoline-6-carboxamide], the IC50 was in the range of 0.001 to 1 µM. For the same molecule, the minimal effective concentration under setting [1] is 0.001 to 1 µM. Further, the minimal effective concentration (read-out: Mitotic Arrest (≥5%)) is 0.001 to 1 µM.
For `CCOc1cc(Oc2ccnc3ccc(C(N)=O)cc23)cc(-n2cccn2)c1` [Compound 65, 4-(3-Ethoxy-5-(MH-pyrazol-1-yl)phenoxy) quinoline-6-carboxamide], the IC50 fell in the range of 0.001 to 1 µM. In addition, the minimal effective concentration under setting [1] fell in the range of 0.001 to 1 µM. Moreover, under “read-out: Mitotic Arrest (≥5%)”, the minimal effective concentration lay in the range of 0.001 to 1 µM.
For the molecule `COc1cc(Oc2ccnc3cc(OC)c(C(N)=O)cc23)cc(-c2cnn(C)c2)c1` [Compound 66, 7-Methoxy-4-(3-methoxy-5-(1-methyl-H-pyrazol-4-yl)phenoxy)quinoline-6-carboxamide], the IC50 was 0.001 to 1 µM. Moreover, under setting [1], the minimal effective concentration lay within 0.001 to 1 µM. For the same molecule, the minimal effective concentration (read-out: Mitotic Arrest (≥5%)) lay within 0.001 to 1 µM.
Turning to `COc1cc(Oc2ccnc3ccc(Br)cc23)cc(-c2nc(C)no2)c1` [Compound 67, 5-(3-((6-Bromoquinolin-4-yl)oxy)-5-methoyphenyl)-3-methyl-1,2,4-oxadiazole], the IC50 is 0.001 to 1 µM. Moreover, under setting [1], the minimal effective concentration was 0.001 to 1 µM. Moreover, the minimal effective concentration (read-out: Mitotic Arrest (≥5%)) was 0.001 to 1 µM.
As for `CCOc1cc(Oc2ccnc3ccc(Br)cc23)cc(C(=O)NC)c1` [Compound 68], the IC50 was in the range of 0.001 to 1 µM. Under setting [1], the minimal effective concentration was in the range of 0.001 to 1 µM. For the same molecule, the minimal effective concentration (read-out: Mitotic Arrest (≥5%)) was 0.001 to 1 µM.
Turning to `COc1cc(OC)cc(Oc2ccnc3cc(OC)c(C(N)=O)cc23)c1` [Compound 69, 4-(3,5-Dimethoxyphenoxy)-7-methoxyquinolin-6-carboxamide], the IC50 lay within 0.001 to 1 µM. The minimal effective concentration under setting [1] fell in the range of 0.001 to 1 µM. Also, where the note is “read-out: Mitotic Arrest (≥5%)”, the minimal effective concentration is 0.001 to 1 µM.
`CNC(=O)c1cc(OC)cc(Oc2ccnc3ccc(C(F)(F)F)cc23)c1` [Compound 70, 3-Methoxy-N-methyl-5-((6-(trifluoromethyl)quinolin-4-yl)oxy) benzamide]: the IC50 lay within 1 to 10 µM. Moreover, the minimal effective concentration under setting [1] lay within 1 to 10 µM. The minimal effective concentration (read-out: Mitotic Arrest (≥5%)) was in the range of 1 to 10 µM.
With `CNC(=O)c1cc(OC)cc(Oc2ccnc3cc(OC)c(C(N)=O)cc23)c1` [Compound 71, 7-Methoxy-4-(3-methoxy-5-(methylcarbamoyl)phenoxy) quinoline-6-carboxamide], the IC50 lay within 1 to 10 µM. Under setting [1], the minimal effective concentration lay in the range of 1 to 10 µM. Moreover, the minimal effective concentration (read-out: Mitotic Arrest (≥5%)) lay in the range of 1 to 10 µM.
`CNC(=O)c1cc(OC)cc(Oc2ccnc3ccc(Br)cc23)c1` [Compound 72, 3-((6-Bromoquinolin-4-yl)oxy)-5-methoxy-N-methylbenzamide]: the IC50 fell in the range of 0.001 to 1 µM. For the same molecule, the minimal effective concentration under setting [1] is 0.001 to 1 µM. In addition, the minimal effective concentration (read-out: Mitotic Arrest (≥5%)) lay in the range of 0.001 to 1 µM.

The values above are taken from US20240239806A1, “COMPOUNDS, COMPOSITIONS AND METHODS OF TREATING DISORDERS” (Chengdu Anticancer Bioscience, Ltd., priority 2021, published 2024).
